Laboratory results as given in US6800656B2, “Tricyclic compounds and method of treating herpes virus” (Warner Lambert Company, priority 2000, dated 2004).

Assays:
in vitro = assay type: cell-based; details: for CC50: African green monkey; for CC50 at 7 days: human
Protocol: Anti-human cytomegalovirus (HCMV) activity is determined in a yield reduction assay utilizing a recombinant HCMV (RC256) that produces β-gal (Spaete, R. R.; Mocarski, E. S. Proceedings of the National Academy of Sciences USA 84:7213-7217, 1987). Primary human diploid fibroblasts (HFF cells) are infected at an moi of 0.01 with RC256, and serial dilutions of the compound in DMSO are added. The final concentration of DMSO in all wells is 1%. The infection is allowed to proceed for 7 days at which time the β-gal activity in cell lysates is measured. Activity in wells containing compound is compared to control wells and percent inhibition determined.
Cellular toxicity assays: Cellular toxicity is measured in HFF cells. Cells are plated in 96 well plates at 1×10^4 cells/well. Serial dilutions of compounds are added to the wells in DMSO, with the final concentration of DMSO in all wells at 1%, in a total volume of 200 μL. The plates are maintained in a 37° C. incubator for 7 days. 50 μL of a solution of XTT (sodium-3′[1-(phenyl-amino-carbonyl)-3,-tetrazolium]-bis(bis(4-methoxy-6-nitro)-benzene sulfonic acid hydrate) (3×10^−4 mg/ml) is added to each well, and the plates returned to the incubator for 4 hours, after which the A450 (absorbance at wavelength of 450 nm) for each well is measured in a plate reader. (Roehm, N. W., et al J. Immunol. Meth. 142:257-265, 1991). Toxicity is determined by comparison of the OD (optical density) of a well containing compound to the OD of wells containing DMSO only.

[1] = tested on: herpes simplex virus 1 (HSV); experiment: microbe, parasite or virus in culture; assay type: cell-based; details: for EC50: Human alphaherpesvirus 1, Vero; for TI (EC50/TC50): therapeutic index, HSV-1, Vero cells
Protocol: Vero (African Green Monkey kidney) cells are infected at a multiplicity of infection of 0.01 with the virus, and serial dilutions of the compound in dimethyl sulfoxide (DMSO) are added. The final concentration of DMSO in all wells is 1%. DMSO is added to control wells. The infection is allowed to proceed for 2 days at which time the β-gal activity in cell lysates is measured. Activity in wells containing compound is compared to control wells and percent inhibition determined.

[2] = tested on: human cytomegalovirus (HCMV); experiment: microbe, parasite or virus in culture; assay type: cell-based; details: Human betaherpesvirus 5, HFF
Protocol: Primary human diploid fibroblasts (HFF cells) are infected at an moi of 0.01 with RC256, and serial dilutions of the compound in DMSO are added. The final concentration of DMSO in all wells is 1%. The infection is allowed to proceed for 7 days at which time the β-gal activity in cell lysates is measured. Activity in wells containing compound is compared to control wells and percent inhibition determined.

| SMILES | melting point [°C] | CC50 (in vitro) [nM] | EC50 [1] [nM] | TI (EC50/TC50) [1] | CC50 at 7 days (in vitro) [nM] | EC50 [2] [nM] |
| --- | --- | --- | --- | --- | --- | --- |
| CC(Nc1ccc2oc3ccccc3c2c1)c1ccccc1 (stereo not drawn) | 94 to 95 |  |  |  |  |  |
| COc1cc(CNc2ccc3oc4ccccc4c3c2)cc(OC)c1 [Example 56, Dibenzofuran-2-yl-(3,5-dimethoxy-benzyl)-amine] | 87 to 88 | > 100000 | 700 | >143 |  |  |
| FC(F)(F)c1ccc(CNc2ccc3oc4ccccc4c3c2)cc1 [Example 57, Dibenzofuran-2-yl-(4-trifluoromethyl-benzyl)-amine] | 89 to 90 | > 100000 | 810 | >124 | > 100000 | 1700 |
| O=[N+]([O-])c1ccc(CNc2ccc3oc4ccccc4c3c2)cc1 [Example 60, Dibenzofuran-2-yl-(4-nitro-benzyl)-amine] |  | > 100000 | 500 | >200 | > 100000 | 1300 |
| CSc1ccc(CNc2ccc3oc4ccccc4c3c2)cc1 [Example 61, Dibenzofuran-2-yl-(4-methylsulfanyl-benzyl)-amine] | 103 to 104 |  |  |  | > 100000 | 2900 |
| CCCC(Cc1ccccc1)Nc1ccc2oc3ccccc3c2c1 (stereo not drawn) [Example 65, (1-Benzyl-butyl)-dibenzofuran-2-yl-amine] |  |  |  |  | > 100000 | 3000 |
| c1cnc2c(c1)Oc1cc(NCc3cccc4ccccc34)ccc1S2 [Example 93, Naphthalene-1-ylmethyl-(10-oxa-9-thia-1-aza-anthracen-6-yl)-amine] |  | > 100000 | 1300 | >77 |  |  |
| COc1ccc(CNc2ccc3oc4ccc(Cl)cc4c3c2)cc1F [Example 139, (8-Chloro-dibenzofuran-2-yl)-(3-fluoro-4-methoxy-benzyl)-amine] |  | > 100000 | 400 | >250 |  |  |
| COc1ccc(CNc2cccc3c2oc2ccccc23)cc1 [Example 150, Dibenzofuran-4-yl-(4-methoxy-benzyl)-amine] |  | > 100000 | 850 | >118 |  |  |
| Fc1ccc(CNc2ccc3c(c2)Oc2ccccc2S3)c(F)c1 [Example 208, (2,4-Difluoro-benzyl)-phenoxathiin-3-yl-amine] |  | > 100000 | 260 | >385 |  |  |
| CCn1c2ccccc2c2cc(NCc3cccc(F)c3C)ccc21 [Example 217, (9-Ethyl-9H-carbazol-3-yl)-(3-fluoro-2-methyl-benzyl)-amine] |  | > 100000 | 320 | >313 |  |  |
| Nc1nc(O)c2ncn(COC(CO)CO)c2n1 [Ganciclovir] |  |  |  |  | > 100000 | 2600 |

The next lines start with results.

| melting point [°C] | SMILES | CC50 (in vitro) [nM] | EC50 [1] [nM] | TI (EC50/TC50) [1] | CC50 at 7 days (in vitro) [nM] | EC50 [2] [nM] |
| --- | --- | --- | --- | --- | --- | --- |
| 91 to 93 | c1ccc(Oc2ccc(CNc3ccc4oc5ccccc5c4c3)cc2)cc1 |  |  |  |  |  |
| 193 to 195 | c1ccc2c(c1)CN(c1ccc3oc4ccccc4c3c1)C2 |  |  |  |  |  |
| 217 to 218 | O=C1c2ccccc2C(=O)N1c1ccc2oc3ccccc3c2c1 |  |  |  |  |  |
| 75 to 77 | FC(F)(F)Oc1ccc(CNc2ccc3oc4ccccc4c3c2)cc1 |  |  |  |  |  |
| 145 to 147 | Oc1ccccc1CNc1ccc2oc3ccccc3c2c1 |  |  |  |  |  |
| 93 to 94 | c1ccc(Oc2cccc(CNc3ccc4oc5ccccc5c4c3)c2)cc1 |  |  |  |  |  |
| 85 to 86 | c1ccc2c(c1)oc1ccc(NCc3ccc4c(c3)OCO4)cc12 |  |  |  |  |  |
| 84 to 85 | Cc1ccccc1CNc1ccc2oc3ccccc3c2c1 |  |  |  |  |  |
| 62 to 63 | c1ccc2c(c1)oc1ccc(NCc3ccsc3)cc12 |  |  |  |  |  |
| 81 to 82 | c1ccc(CNc2ccc3oc4ccccc4c3c2)cc1 |  |  |  |  |  |
